According to US8084049B2, “Complexes of fatty acid esters of polyhydroxyalkanes and pyridine carboxy derivatives” (priority 2002, dated 2011):
“Also recorded” adds a separate entry of the source.

Tests used:
[1] = system: 12-O-tetradecanoylphorbol-13-acetate (TPA) induced mouse ear inflammation; test: acute TPA induced mouse ear inflammation model (Example 111); assay type: in vivo, female BALB/ca mice; conditions: vs vehicle
Source text: This was done by comparing a high dose, corresponding to Emax (the maximal obtainable effect representing the plateau of the dose-response curve) with the individual effects of the molar amount present of each component of the complex. If the effect of the complex is higher than the sum of the components the effect is synergistic. […] The positive control used in this study was betamethasone 17-valerate applied as a commercial preparation with maximum human dose (Celeston® Cutaneous Solution 0.1%, Shering-Plough).
The test substances were administered 20 minutes before and 20 minutes after application of TPA to the ear.
All groups were treated with 20 μl TPA solution 400 μg/ml in acetone, on the right ear.
Three hours after the TPA application the mice were sacrificed, the ears cut from the tip with a punch biopsy knife (8 mm diameter) and weighed.
Differences in relative ear oedema between the vehicle treated group and the other groups were tested for significance employing a non-parametric statistical method of analysis, the Mann-Whitney U test. The required level of significance was p<0.05.

[2] = system: Microsporum canis; test: antimicrobial MIC test (Example 113); assay type: cell-based; conditions: 1 to 4 days culture; initial test concentration 3 mM in 1% DMSO and dilutions
Procedure: (§1) Test substance or vehicle is added to test wells containing the selected microorganisms (1×10^4 to 5×10^5 CFU/ml)in cultures grown under controlled conditions. The final innoculum concentration is determined by reference to a standard optical density curve and adjusted as required. After 1 to 4 days, growth of the culture is examined and scored positive (+) for inhibition of growth or turbidity, or negative (−) for no effect upon growth or turbidity. An initial test concentration of 3 mM in 1% DMSO is used and dilutions are tested to establish the minimal inhibitory concentration (MIC).

[3] = system: Epidermophyton floccosum; test: antimicrobial MIC test (Example 113); assay type: cell-based; conditions: 1 to 4 days culture; initial test concentration 3 mM in 1% DMSO and dilutions
Procedure: as §1

[4] = system: Trichophyton rubrum; test: antimicrobial MIC test (Example 113); assay type: cell-based; conditions: 1 to 4 days culture; initial test concentration 3 mM in 1% DMSO and dilutions
Procedure: as §1

[5] = system: Streptococcus faecalis; test: antimicrobial MIC test (Example 113); assay type: cell-based; conditions: 1 to 4 days culture; initial test concentration 3 mM in 1% DMSO and dilutions
Procedure: as §1

[6] = system: Candida albicans; test: antimicrobial MIC test (Example 113); assay type: cell-based; conditions: 1 to 4 days culture; initial test concentration 3 mM in 1% DMSO and dilutions
Procedure: as §1

[7] = system: sub-chronic TPA induced mouse ear inflammation; test: sub-chronic TPA (repeated application) mouse ear inflammation model (Example 112); assay type: in vivo, female BALB/ca mice
Procedure: Investigation of two complexes according to the invention in a recognized pharmacodynamic model of sub-chronic inflammation.
The objective of this study was to assess the therapeutic value of the complexes of the invention in a very demanding pharmacodynamic model of dermal inflammation. Repeated application of TPA to the ears of the mice within 48 hours yields an inflammatory lesion with infiltration of leukocytes and persistent swelling. The reapplication of TPA ([…]) after 48 hours produces an inflammation and ear oedema, which is more dramatic due to the involvement and activation of a vast number of inflammatory cells. Therefore the model is suitable for drug evaluation in relation to more aggravated or chronic inflammatory conditions. The test substance for evaluation is co-applied with the second TPA application. […]
Mean weights and standard deviations were calculated. Relative ear oedema was assessed as the weight difference between right and left ear of each mouse expressed as percent of the left ear. Percent inhibition of the relative ear oedema compared with the vehicle treated groups was calculated for the test substance and positive control treated group. […]

## CCCCCCCC(=O)OCC(O)CO (racemic) [Rac-1-glyceryl-monocaprylate]
[1]; 4.58 μmol/ear, given 20 min before and 20 min after TPA, ears weighed 3 h after TPA
  % Inhibition of relative ear oedema: 22%
[2]
  MIC: Not active at tested
[3]
  MIC: Not active at tested
[4]
  MIC: Not active at tested
[5]
  MIC: Not active at tested
[6]
  MIC: Not active at tested

## CCCCC(=O)O[C@]1(C(=O)CO)[C@@H](C)C[C@H]2[C@@H]3CCC4=CC(=O)C=C[C@]4(C)[C@@]3(F)[C@@H](O)C[C@@]21C [Betamethasone 17-valerate]
[1]; 0.02 mg/ear (Celeston Cutaneous Solution 0.1%), 20 min before and after TPA, 3 h after TPA
  % Inhibition of relative ear oedema: 66%
[7]; 0.02 mg/ear, 20 min before and after TPA re-application at 48 h, 3 h after TPA, vs vehicle
  % Inhibition of relative ear oedema: 31%

## NC(=O)c1cccnc1 [Niacinamide]
[1]; 64.1 μmol/ear, given 20 min before and 20 min after TPA, ears weighed 3 h after TPA
  % Inhibition of relative ear oedema: 18%

## C[C@]12CCC(=O)C=C1CC[C@@H]1[C@@H]2[C@@H](O)C[C@@]2(C)[C@H]1CC[C@]2(O)C(=O)CO [hydrocortisone]
[7]; observation of the inventor on mild steroids
  effect in the sub-chronic TPA model: no effect; also recorded: no measurable effects
